The values below come from patent publication US11999746B2, “Compounds” (GlaxoSmithKline Intellectual Property Development Limited, priority 2014, dated 2024).

SMILES strings stand for the structures.

Experiment [1] has as its target T1, recombinant human Lp-PLA2 (Homo sapiens, UniProt Q13093).
T1 sequence (Q13093 22-441): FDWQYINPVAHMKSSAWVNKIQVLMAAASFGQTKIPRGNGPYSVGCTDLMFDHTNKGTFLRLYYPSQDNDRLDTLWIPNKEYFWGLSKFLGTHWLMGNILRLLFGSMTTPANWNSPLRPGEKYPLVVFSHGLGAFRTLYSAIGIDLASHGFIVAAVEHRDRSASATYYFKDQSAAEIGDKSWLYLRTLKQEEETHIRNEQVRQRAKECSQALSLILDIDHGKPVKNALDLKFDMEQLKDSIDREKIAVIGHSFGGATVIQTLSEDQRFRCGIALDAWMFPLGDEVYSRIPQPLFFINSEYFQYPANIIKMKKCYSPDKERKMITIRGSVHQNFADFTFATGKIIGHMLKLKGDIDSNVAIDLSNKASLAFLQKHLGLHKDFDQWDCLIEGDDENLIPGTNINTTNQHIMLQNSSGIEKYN
Briefly: (1a) PED6 assay, recombinant human Lp-PLA2 (rhLp-PLA2). It is filed as biochemical. Conditions: Examples 1-167 and 413-430 were tested here, one experiment or average of multiple experiments, read-out: rhLp-PLA2 (pIC50) (converted). An excerpt:
(1) Recombinant Human Lp-PLA2 Assays (rhLp-PLA2)
N-((6-(2,4-Dinitrophenyl)amino)-hexanoyl)-2-(4,4-difluoro-5,7-dimethyl-4-bora-3a,4a-diaza-s-indacene-3-pentanoyl)-1-hexadecanoyl-sn-glycero-3-phosphoethanolamine, triethylammonium salt (PED6) is a commercially available fluorescently-labeled phospholipid, which is commercially available from Invitrogene and Molecular Probes. There is a quenching […] and a Bodipy fluorescein (FL) group in the sn2 position. Upon cleavage with Lp-PLA2, the Bodipy FL group is liberated and then may result in an increase in fluorescence. Inhibitors of Lp-PLA2 therefore prevent this cleavage and no fluorescent increase is observed.
The PED6 assay was run as an unquenched 10 μL assay. The source plate containing the compounds to be tested was prepared by making 1:3 (by volume) serial dilution of the compounds within DMSO on 384-well microplate. Then, 0.01 μL of the compounds on compound source plate were transferred into 384 well Greiner 784076 (black) plates using ECHO liquid dispenser. 5 μL of recombinant human Lp-PLA2 enzyme (4 nM) rhLp-PLA2 in assay buffer of 50 mM HEPES, pH 7.4, 150 mM NaCl, 1 mM CHAPS) was added to each well of the plate. Plates were centrifuged for 10 sec at 500 rpm. After 30 minutes preincubation, 5 μL of substrate (4 μM PED6 [from 5 mM DMSO stock] in assay buffer of 50 mM HEPES, pH 7.4, 150 mM NaCl, 1 mM CHAPS) was added to 384 well Greiner 784076 (black) plates. Plates were centrifuged for 10 sec at 500 rpm. The plate was covered to protect it from light and incubated for 20 min at room temperature. The plates were read for fluorescence intensity at ex: 480/em: 540 using ViewLux microplate imager for Envision spectrofluroimeters. pIC50 data, curve and QC analysis was conducted by using XL fit module in Excel.

For experiment [2], the target named is T2, Lp-PLA2 in human plasma (Homo sapiens, UniProt Q13093).
T2 construct: from tissue; host or cells: pooled human plasma
T2 sequence (Q13093 22-441): T1 sequence (Q13093 22-441)
Briefly: (3a) Lp-PLA2 human plasma Thio-PAF assay. The class given is biochemical. As to conditions: (3a) Thio-PAF assay, pooled human plasma; Examples 1-265 and 413-430 were tested here; read-out: pIC50 in the Lp-PLA2 human plasma assay (converted). An excerpt: (3) Lipoprotein-Associated Phospholipase A2 (Lp-PLA2) Human Plasma Assay
The human plasma assay utilizes a thioester analog of PAF (phosphatidylcholine), where hydrolysis yields to the formation of a phospholipid containing a free thiol group. The amount of thiol is quantitated continuously by reacting with CPM (7-diethylamino-3-(4′-maleimidylphenyl)-4-methylcoumarin), a maleimide which increases in fluoresence after Michael addition of thiols. This assay may detect the activity of Lp-PLA2 in human plasma, as determined by specific inhibition by Lp-PLA2 inhibitors.
The thio-PAF assay was run as a quenched 15 μL assay. Compounds source plate was prepared by making 1:3 (by volume) serial dilution of the compounds into pure DMSO on 384-well microplate. 0.01 μL of compounds on compound source plate were transferred to 384 well Greiner 784076 (black) low-volume plates by ECHO liquid dispenser. 8 μL pooled human plasma, which was previously aliquoted and frozen, was added. Plates were centrifuged for 10 sec at 500 rpm. After 30 minutes preincubation, 2 μL of substrate solution comprising 2.5 mM 2-thio-PAF [from ethanol stock], 32 μM CPM [from a DMSO stock] and 3.2 mM NEM (N-ethylmaleimide) [made fresh daily in DMSO] in assay buffer of 50 mM HEPES, pH 7.4, 150 mM NaCl, 1 mM CHAPS was added to 384 well Greiner 784076 (black) low-volume plates by BRAVO liquid handling station. After 2 mins, reaction was quenched with 5 μL of 5% aqueous trifluoroacetic acid (TFA). Plates were covered to protect from light and incubated for 40 min at room temperature. Plates were read at ex: 380/em: 485 using Envision microplate reader. PIC50 data, curve and QC analysis were conducted by using XLFit module in Excel.

With `CN1c2cc(OCc3ccc(F)cc3F)nc(=O)n2CC12CCCCC2` [Example 427, 7′4(2,4-difluorobenzyhoxy)-1-methyl-1H-spiro[cyclohexane-1,2′-imidazo[1,2-c]pyrimidin]-5′(3′H)-one], the values for the IC50 in experiment [1] and in experiment [2] were no more than 0.1 µM and no more than 10 µM, respectively.
As to `CCn1cc(Oc2c(F)cc(COc3cc4n(c(=O)n3)C[C@@H]3COCCN43)cc2F)cn1` [Example E121, (R)-7-((4-((1-ethyl-1H-pyrazol-4-yl)oxy)-3,5-difluorobenzyl)oxy)-3,4,11,11a-tetrahydropyrimido[6′,1′:2,3]imidazo[5,1-c][1,4]oxazin-9(1H)-one], the IC50 in experiment [1] was no more than 0.1 µM; in experiment [2] it was no more than 10 µM.
Take `O=c1nc(OCc2cc(F)c(Oc3ccc(C(F)(F)F)nc3)c(F)c2)cc2n1C[C@H]1CCCN21` [Example E79, (R)-3-((3,5-difluoro-4-((6-(trifluoromethyl)pyridin-3-yl)oxy)benzyl)oxy)-7,8,8a,9-tetrahydro pyrrolo[1′,2′:3,4]imidazo[1,2-c]pyrimidin-1(6H)-one]: the values for the IC50 in experiment [1] and in experiment [2] were no more than 0.001 µM and no more than 0.1 µM, respectively.
As for `O=c1nc(OCc2cccc(F)c2F)cc2n1C[C@@H]1CCCCN21` [Example E58, (S)-3-((2,3-Difluorobenzyl)oxy)-6,7,8,9,9a,10-hexahydro-1H-pyrido[1′,2′:3,4]imidazo[1,2-c] pyrimidin-1-one], the IC50 in experiment [1] was no more than 0.1 µM; in experiment [2], no more than 10 µM.
For `CN1c2cc(OCc3cccc(F)c3)nc(=O)n2CC12CCC2` [Example 413], in that order: no more than 0.1 µM and no more than 10 µM.
The like results for `O=c1nc(OCc2cc(F)c(F)cc2F)cc2n1C[C@@H]1CCCCN21` [Example E59, (S)-3-((2,4,5-Trifluorobenzyl)oxy)-6,7,8,9,9a,10-hexahydro-1H-pyrido[1′,2′:3,4]imidazo[1,2-c]pyrimidin-1-one] were, in that order, no more than 0.1 µM and no more than 10 µM.
For `O=c1nc(OCc2cc(F)c(Oc3ccnc(C(F)(F)F)c3)c(F)c2)cc2n1CC1CCCCN21` (stereo not drawn) [Example E41], in that order: no more than 0.001 µM and no more than 0.1 µM.
For the compound `CCn1cc(Oc2c(F)cc(COc3cc4n(c(=O)n3)C[C@H]3COCCN43)cc2F)cn1` [Example E115, (S)-7-((4-((1-ethyl-1H-pyrazol-4-yl)oxy)-3,5-difluorobenzyl)oxy)-3,4,11,11a-tetrahydropyrimido[6′,1′:2,3]imidazo[5,1-c][1,4]oxazin-9(1H)-one], the IC50 in experiment [1] was 0.001 µM; in experiment [2] it was no more than 0.1 µM.
The like results for `CN1c2cc(OCc3cc(F)c(F)cc3F)nc(=O)n2CC12CCC2` [Example 429, 1-methyl-7′-((2,4,5-trifluorobenzyl)oxy)-1′H-spiro[cyclobutane-1,2′-imidazo[1,2-c]pyrimidin]-5′(3′H)-one] were, in that order, no more than 0.1 µM and no more than 10 µM.
For the compound `O=c1nc(OCc2cc(F)c(Oc3ccnc(C(F)(F)F)c3)c(F)c2)cc2n1C[C@H]1CCCN21` [Example E67, (R)-3-((3,5-difluoro-4-((2-(trifluoromethyl)pyridin-4-yl)oxy)benzyl)oxy)-7,8,8a, 9-tetra hydropyrrolo[1′,2′:3,4]imidazo[1,2-c]pyrimidin-1(6H)-one], the IC50 in experiment [1] was no more than 0.001 µM.
On the same count and under the same terms, to `CN(Cc1ccc(F)cc1F)c1cc2n(c(=O)n1)C[C@@H]1CCCCN21` [Example E61, (S)-3-((2,4-Difluorobenzyl)(methyl)amino)-6,7,8,9,9a,10-hexahydro-1H-pyrido[1′,2′:3,4] imidazo[1,2-c]pyrimidin-1-one] belongs no more than 0.1 µM; to `O=c1nc(OCc2cc(F)c(Oc3ccnc(C(F)(F)F)c3)c(F)c2)cc2n1C[C@@H]1CCCN21` [Example E71, (S)-3-((3,5-difluoro-4-((2-(trifluoromethyl)pyridin-4-yl)oxy)benzyl)oxy)-7,8,8a, 9-tetra hydropyrrolo[1′,2′:3,4]imidazo[1,2-c]pyrimidin-1(6H)-one], no more than 0.001 µM; to `N#Cc1ccc(COc2cc3n(c(=O)n2)CC2CCCCN32)cc1` (stereo not drawn) [Example E4, 4-(((1-Oxo-6,7,8,9,9a,10-Hexahydro-1H-pyrido[1′,2′:3,4]imidazo[1,2-c]pyrimidin-3-yl)oxy)methyl)benzonitrile], no more than 10 µM.
Still for that read-out and setting: the same measure for `O=c1nc(OCc2ccc(F)c(C(F)(F)F)c2)cc2n1CC1CCCCN21` (stereo not drawn) [Example E13, 3-((4-Fluoro-3-(trifluoromethyl)benzyl)oxy)-6,7,8,9,9a,10-hexahydro-1H-pyrido-[1′,2′:3,4] imidazo[1,2-c]pyrimidin-1-one]: no more than 10 µM; for `O=c1nc(OCc2ccc(C(F)(F)F)c(Cl)c2)cc2n1CC1CCCCN21` (stereo not drawn) [Example E7, 3-((3-Chloro-4-(trifluoromethyl)benzyl)oxy)-6,7,8,9,9a,10-hexahydro-1H-pyrido[1′,2′:3,4] imidazo[1,2-c]pyrimidin-1-one]: no more than 10 µM.
With `O=c1nc(OCCc2cccc(F)c2)cc2n1C[C@H]1COCN21` [Example E186, (S)-6-(3-fluorophenethoxy)-10,10a-dihydro-1H-oxazolo[3′,4′:3,4]imidazo[1,2-c]pyrimidin-8(3H)-one], in experiment [2], the IC50 is no more than 10 µM.
`Cc1ccc(COc2cc3n(c(=O)n2)CC2CCCCN32)cc1` (stereo not drawn) [Example E9, 3-((4-Methylbenzyl)oxy)-6,7,8,9,9a,10-hexahydro-1H-pyrido[1,2′:3,4]imidazo[1,2-c] pyrimidin-1-one]: the IC50 in experiment [1] is no more than 10 µM.
Regarding `O=c1nc(OCc2cccc(F)c2)cc2n1C[C@@H]1COCN21` [Example E171, (R)-6-((3-fluorobenzyl)oxy)-10,10a-dihydro-1H-oxazolo[3′,4′:3,4]imidazo[1,2-c]pyrimidin-8(3H)-one], the IC50 in experiment [2] is no more than 10 µM.
`O=c1nc(OCCc2cccc(F)c2)cc2n1C[C@H]1CCCN21` [Example E249, (R)-3-(3-fluorophenethoxy)-7,8,8a,9-tetrahydropyrrolo[1′,2′:3,4]imidazo[1,2-c]pyrimidin-1(6H)-one]: the IC50 in experiment [2] was no more than 10 µM.
Still for that read-out and setting: to `O=c1nc(OCc2cc(F)cc(F)c2)cc2n1C[C@@H]1CCOCN21` [Example E182, (S)-3-((3,5-difluorobenzyl)oxy)-8,9,9a,10-tetrahydropyrimido[6′,1′:2,3]imidazo[1,5-c][1,3] oxazin-1(6H)-one] belongs no more than 10 µM; to `O=c1nc(OCc2cc(F)cc(F)c2)cc2n1CC1OCCN21` (stereo not drawn) [Example E184, 6-((3,5-Difluorobenzyl)oxy)-10,10a-dihydro-2H-oxazolo[3′,2′:3,4]imidazo[1,2-c]pyrimidin-8 (3H)-one], no more than 10 µM.
